Laboratory results: patent US8183383B2, “Protein tyrosine phosphatase 1B inhibitor, preparation methods and uses thereof” (Shanghai Institute of Materia Medica, Chinese Academy of …, priority 2007, dated 2012)

Biological target: T1, hPTP1B (Homo sapiens, UniProt P18031)
T1 construct: The catalytic structural domain of hPTP1B was expressed in E-coli system by a molecular biology protocol; made in house; host or cells: E. coli
T1 sequence (P18031 3-277 limits assumed): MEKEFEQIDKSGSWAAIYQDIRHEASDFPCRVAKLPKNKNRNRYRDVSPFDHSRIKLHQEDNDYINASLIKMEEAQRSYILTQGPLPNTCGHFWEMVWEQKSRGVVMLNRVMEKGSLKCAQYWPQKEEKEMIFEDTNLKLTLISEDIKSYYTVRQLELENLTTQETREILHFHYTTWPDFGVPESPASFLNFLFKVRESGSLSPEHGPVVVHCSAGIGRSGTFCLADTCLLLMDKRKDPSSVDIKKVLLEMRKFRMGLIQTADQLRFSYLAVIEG
Experiment: not given
Conditions: positive control; literature reference Seto et al. J. Med. Chem. 2002; cited from earlier work

Structure (SMILES)	IC50 [µM]
O=C(O)C(=O)c1ccc(OCc2ccc(COc3ccc(C(=O)C(=O)O)cc3)cc2)cc1 [4-[4-(4-oxalyl-phenoxymethyl)-benzyloxy]-phenyl-oxo-acetic acid]	5.4

Test system: insulin receptors (IRs) in CHO/IR cells
Experiment: Effect on the phosphorylation level of insulin receptors in CHO/IR cells
Assay type: cell-based
Conditions: CHO/IR cells, 0.21, 0.43, 0.85, 1.70 μM, 10 nM insulin stimulation, FIG. 1
Description: 1). Experimental principle: The phosphorylation levels of insulin receptors (IRs) in cells sensitive to insulin are regulated by PTK and PTPase. PTP1B is a negative regulator during the process. It can be evaluated by measuring the phosphorylation level of IRs in CHO/IR cells whether the PTP inhibitor has entered into the cells and how its effect in cells is.
2). Experimental Protocol: • 1. Cell inoculation: Cells in good growth condition were inoculated into a 6-well plate with a density of 3-4×10^5 cells/well. To each well was added 2 mL F12 culture media containing 10% FBS. • 2. Starvation: After cultivation for 24 h, to each well was added 2 mL serum-free F12 culture media. Then the plate was cultivated overnight. • 3. Administration: After removing the old culture media, to each well was added 0.9 mLserum-free F12 culture media containing the test compound, wherein 1 mM Na3VO4 and 0.1% DMSO were used as positive and negative control, respectively. The plate was incubated for 2-4 h. • 4. Insulin stimulation: To each well was added 100 μL 100 nM insulin solution so that the final concentration was 10 nM. The reaction was carried out for 10 min. • 5. Sample collection: After discarding the culture media, to each well was added 150 μL×1 loading buffer. […]
3). Experimental results: The experiment evaluated the effect of WY586s on the phosphorylation levels of insulin receptors in CHO/IR cells. […]

Structure (SMILES)	phosphorylation level of IR (p-IR)
CCOC(=O)/C(C)=C\C(C)=C\c1csc([C@H](Cc2ccc(OCc3ccccc3)cc2)NC(=O)CC2CCCCC2)n1 [WY586s]	significantly increases with the increase of the concentration of the inhibitor

Biological target: T1, hPTP1B
Experiment: PTP1B inhibition test (pNPP hydrolysis, absorption at 410 nm)
Assay type: biochemical
Conditions: recombinant hPTP1B catalytic domain 40 nM, 2 mM pNPP, pH 7.0, 2% DMSO; read-out: IC50(μM), inhibitory activity of the test compounds against PTP1B
Description: 1) Test principle: The catalytic structural domain of hPTP1B was expressed in E-coli system by a molecular biology protocol. The purified hPTP1B recombinant protein can hydrolyze the phosphoester linkage of the pNPP substrate to obtain a product which has a strong light absorption at 410 nm. Therefore, the variation of the enzyme activity and the inhibitory activity of a compound against the enzyme can be observed by directly monitoring the changes in the light absorption at 410 nm. A typical activity assay system is as follows: 50 mM Mops, PH 7.0, 1 mM EDTA, 2 mM DTT, 2 mM PNPP, 2% DMSO, 40 nM hPTP1B.
2) Measuring Index: The light absorption was dynamically measured at 410 nm for 3 min. The slope of the first-order reaction of the dynamic curve thereof was considered as the activity index of the enzymes.
3) Measurement: • 1. 1 mg sample was dissolved in 200 μL DMSO. To each wall of the A2-H11 of a 96-wells polypropylene plate, 20 μL of the solution was added, followed by addition of 80 μL DMSO. The plate was used as mother plate. • 2. To each corresponding wall of a 96-wells polypropylene plate, 2 μL of sample was added with a Biomek 2000 automation workstation. The plate was used as daughter plate for screening. • 3. To each wall of A1-D1 and E12-H12, 2 μL, DMSO was added. These walls were regarded as 100% of enzyme activity for control. • 4. To each wall of A12-D12 and E1-H1, 2 μL positive control with different concentrations (four concentrations prepared by double-fold dilution from […]) was added respectively. • 5. To each wall of A1-H12, 88 μL Assay mix was added respectively. • 6. To each wall of A1-H12, 10 μL hPTP1B was added respectively. • 7. The light absorption was measured at 410 nm for 3 min on a SpectraMAX 340 spectrometer. • 8. Exporting the output into a TXT file, and opening the file with Excel. The average of the Vmax values of A1-D1 and E12-H12 was considered as 100% of enzyme activity.
4) Results: The screening results were the % inhibitory rate against the enzyme when the compound concentration was 20 μg/mL. 1050 value was calculated according to a conventional screening when the inhibitory rate exceeded 50%. The […] value of the positive control, 4-[4-(4-oxalyl-phenoxymethyl)-benzyloxy]-phenyl-oxo-acetic acid, is 5.4 μM [Christopher T. Seto, et al. J. Med. Chem., 2002, 45, 3946-3952].

Structure (SMILES)	IC50 [µM]
CCOC(=O)/C(C)=C\C(C)=C\c1csc([C@H](Cc2ccc(OCc3ccccc3)cc2)NC(=O)CC2CCCCC2)n1 [WY586s]	2.48
CCOC(=O)/C(C)=C\C(C)=C\c1csc([C@H](Cc2ccc(OCc3ccccc3)cc2)NC(=O)C(=O)c2ccccc2)n1 [WY594]	6.92
CCOC(=O)/C(C)=C\C(C)=C\c1csc([C@H](Cc2ccc(OCc3ccccc3)cc2)NC(=O)c2ccc(OC)cc2)n1 [WY596s]	44.8
CCOC(=O)/C(C)=C\C(C)=C\c1csc([C@H](Cc2ccc(OCc3ccc(C#N)cc3)cc2)NC(=O)C2CCCCC2)n1 [WY597h]	> 35
CCOC(=O)/C(C)=C\C(C)=C\c1csc([C@H](Cc2ccc(OCc3ccccc3)cc2)NC(=O)C(=O)C2CCCCC2)n1 [WY600]	3.44
CCOC(=O)/C(C)=C\C(C)=C\c1csc([C@H](Cc2ccc(OCc3ccccc3)cc2)NC(=O)C(=O)c2cccs2)n1 [WY600t]	10.9
CCOC(=O)/C(C)=C\C(C)=C\c1csc([C@H](Cc2ccc(OCc3ccccc3)cc2)NC(=O)C(O)C2CCCCC2)n1 (stereo partly shown) [WY602-2]	13.5
CCOC(=O)/C(C)=C\C(C)=C\c1csc([C@H](Cc2ccc(OCc3ccc(OC)cc3)cc2)NC(=O)C2CCCCC2)n1 [WY602h]	25.6
CCOC(=O)/C(C)=C\C(C)=C\c1csc([C@H](Cc2ccc(OCc3ccccc3)cc2)NC(=O)COCc2ccccc2)n1 [WY610s]	9.42
CCOC(=O)/C(C)=C\C(C)=C\c1csc([C@H](Cc2ccc(OCc3ccccc3)cc2)NC(=O)C(=O)c2ccc(F)cc2)n1 [WY612]	5.13
CCOC(=O)/C(C)=C\C(C)=C\c1csc([C@H](Cc2ccc(OCc3ccccc3)cc2)NC(=O)N2CCC(C(=O)O)CC2)n1 [WY617a]	6.47
C/C(=C/C(C)=C/c1nc([C@H](Cc2ccc(OCc3ccccc3)cc2)NC(=O)C2CCCCC2)sc1-c1ccccc1)C(=O)O [WY620a]	4
CCOC(=O)/C(C)=C\C(C)=C\c1csc([C@H](Cc2ccc(Oc3ccc([N+](=O)[O-])cc3F)cc2)NC(=O)C2CCCCC2)n1 [WY621h]	> 35
CCOC(=O)/C(C)=C\C(C)=C\c1csc([C@H](Cc2ccc(OCc3ccc4ccccc4c3)cc2)NC(=O)C2CCCCC2)n1 [WY622h]	> 35
CCOC(=O)/C(C)=C\C(C)=C\c1csc([C@H](Cc2ccc(OCc3ccccc3)cc2)NC(=O)c2cc3ccccc3s2)n1 [WY622s]	25.6
CCOC(=O)/C(C)=C\C(C)=C\c1nc([C@@H](Cc2ccc(OCc3ccccc3)cc2)NC(=O)C2CCCCC2)sc1CC(C)C [WY628z2]	10.5
CCOC(=O)/C(C)=C\C(C)=C\c1nc([C@H](Cc2ccc(OCc3ccccc3)cc2)NC(=O)C2CCCCC2)sc1CC(C)C [WY628z]	6.68
C/C(=C/C(C)=C/c1nc([C@H](Cc2ccc(OCc3ccccc3)cc2)NC(=O)CC2CCCCC2)sc1-c1ccccc1)C(=O)O [WY634a]	3.97
CCOC(=O)/C(C)=C\C(C)=C\c1csc([C@H](Cc2ccc(OCc3ccccc3)cc2)NC(=O)C(=O)COCc2ccccc2)n1 [WY638]	4.1
CCOC(=O)/C(C)=C\C(C)=C\c1csc([C@H](Cc2ccc(OCc3ccccc3)cc2)NC(=O)N2CCC(C(=O)OCC)CC2)n1 [WY645s]	10.5
CCOC(=O)/C(C)=C\C(C)=C\c1nc([C@H](Cc2ccc(OCc3ccccc3)cc2)NC(=O)C2CCCCC2)sc1-c1ccccc1 [WY648z]	3.3
CCOC(=O)/C(C)=C\C(C)=C\c1csc([C@H](Cc2ccc(OCc3ccccc3)cc2)NC(=O)C(OCc2ccccc2)C(C)C)n1 (stereo partly shown) [WY652s]	9.98
CCOC(=O)/C(C)=C\C(C)=C\c1csc([C@H](Cc2ccc(OCc3ccccc3)cc2)NC(=O)N[C@@H](Cc2ccc(OCc3ccccc3)cc2)c2nc(/C=C(C)/C=C(/C)C(=O)OCC)cs2)n1 [WY951]	6.29
